Test results from ChEMBL document CHEMBL4390670, “4-Aryl Pyrrolidines as a Novel Class of Orally Efficacious Antimalarial Agents. Part 1: Evaluation of 4-Aryl- N-benzylpyrrolidine-3-carboxamides” (J Med Chem, 2019).

Tests used:
[1] = Oral bioavailability in mouse at 5 mg/kg by LC-MS analysis; conditions: in vivo
[2] = molecular target: Voltage-gated inwardly rectifying potassium channel KCNH2 (Homo sapiens, UniProt Q12809)
Description: Inhibition of Tracer Red binding to human ERG expressed in membranes by fluorescence polarization assay

Plasmodium chabaudi [3] = assay: Antimalarial activity against chloroquine-resistant Plasmodium chabaudi ASCQ infected in NIH mouse assessed as inhibition of parasitemia at 10 mg/kg, po administered once daily for 4 days starting from 4 hrs post-infection and measured on day 4 by Peter's 4 day test relative to control; type: functional
[4] = Apparent clearance in mouse at 2 mg/kg, iv by LC-MS analysis; type: ADME, organism-based; conditions: in vivo, read-out: CL(app)
[5] = Time at which plasma concentration stays above in-vitro antimalarial IC50 for chloroquine-sensitive Plasmodium falciparum 3D7 in NIH mouse infected with chloroquine-resistant Plasmodium chabaudi ASCQ at 30 mg/kg/day, po; type: ADME, organism-based; conditions: in vivo
[6] = Half life in mouse liver microsomes at 1 uM measured after 30 mins in presence of NADPH by LC-MS/MS analysis; type: ADME, Microsome; conditions: microsomes, 0.5 h, 1 µM
Plasmodium falciparum [7] = assay: microbe, parasite or virus in culture; conditions: 3D7, 72 h
Description: Antimalarial activity against chloroquine-sensitive Plasmodium falciparum 3D7 measured after 72 hrs by SYBR Green 1 dye based fluorescence assay

[8] = Apparent volume of distribution in mouse at 2 mg/kg, iv by LC-MS analysis; type: ADME, organism-based; conditions: in vivo, read-out: Vz
[9] = Half life in mouse at 2 mg/kg, iv by LC-MS analysis; type: ADME, organism-based; conditions: in vivo
Plasmodium chabaudi [10] = assay: Antimalarial activity against chloroquine-resistant Plasmodium chabaudi ASCQ infected in NIH mouse assessed as inhibition of parasitemia at 30 mg/kg, po administered once daily for 4 days starting from 4 hrs post-infection and measured on day 4 by Peter's 4 day test relative to control; type: functional
Plasmodium falciparum [11] = assay: Antimalarial activity against multidrug-resistant Plasmodium falciparum Dd2 measured after 72 hrs by SYBR Green 1 dye based fluorescence assay; type: functional, organism-based; conditions: Dd2, 72 h
Plasmodium chabaudi [12] = assay: Antimalarial activity against chloroquine-resistant Plasmodium chabaudi ASCQ infected in po dosed NIH mouse assessed as inhibition of parasitemia administered starting from 4 hrs post-infection by Peter's 4 day test; type: functional
Plasmodium chabaudi [13] = assay: Antimalarial activity against chloroquine-resistant Plasmodium chabaudi ASCQ infected in NIH mouse assessed as inhibition of parasitemia at 3 mg/kg, po administered once daily for 4 days starting from 4 hrs post-infection and measured on day 4 by Peter's 4 day test relative to control; type: functional
Plasmepsin II = Plasmepsin II (Plasmodium falciparum, UniProt P46925); assay: Inhibition of Plasmodium falciparum plasmepsin 2 using EDANS-CO-CH2-CH2-CO-ALERMFLSFP-Dap(DABCYL)OH as substrate measured after 60 mins by fluorescence assay
[14] = Oral bioavailability in mouse at 5 mg/kg by LC-MS analysis; conditions: in vivo; remark: listed apart in the source
Plasmepsin 4 = Plasmepsin 4 (Plasmodium falciparum, UniProt Q17SB2); assay: Inhibition of Plasmodium falciparum plasmepsin 4 using EDANS-CO-CH2-CH2-CO-ALERMFLSFP-Dap(DABCYL)OH as substrate measured after 60 mins by fluorescence assay
[15] = Intrinsic clearance in mouse liver microsomes at 1 uM measured after 30 mins in presence of NADPH by LC-MS/MS analysis; type: ADME, Microsome; conditions: 0.5 h
Beta-secretase 1 = Beta-secretase 1 (Homo sapiens, UniProt P56817); assay: Inhibition of recombinant human C-terminal His10-tagged BACE1 using Mca-SEVNLDAEFRK(Dpn)RR-NH2 as substrate measured after 60 mins by TR-FRET assay
Chain of Beta-secretase 1 (P56817 whole entry): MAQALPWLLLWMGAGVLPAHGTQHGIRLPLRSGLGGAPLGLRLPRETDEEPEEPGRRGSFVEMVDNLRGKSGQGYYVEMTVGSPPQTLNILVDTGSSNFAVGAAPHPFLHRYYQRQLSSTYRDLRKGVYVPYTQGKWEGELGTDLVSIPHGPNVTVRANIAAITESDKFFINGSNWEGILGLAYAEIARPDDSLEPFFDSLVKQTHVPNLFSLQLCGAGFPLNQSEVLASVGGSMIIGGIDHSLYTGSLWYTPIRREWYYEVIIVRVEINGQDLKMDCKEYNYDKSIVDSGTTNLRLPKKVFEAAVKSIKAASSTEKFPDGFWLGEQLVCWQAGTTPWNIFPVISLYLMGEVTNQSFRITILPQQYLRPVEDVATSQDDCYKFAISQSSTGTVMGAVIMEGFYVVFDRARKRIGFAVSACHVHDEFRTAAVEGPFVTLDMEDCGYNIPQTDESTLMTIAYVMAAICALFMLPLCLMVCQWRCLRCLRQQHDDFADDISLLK

Chain of Voltage-gated inwardly rectifying potassium channel KCNH2 (Q12809 whole entry): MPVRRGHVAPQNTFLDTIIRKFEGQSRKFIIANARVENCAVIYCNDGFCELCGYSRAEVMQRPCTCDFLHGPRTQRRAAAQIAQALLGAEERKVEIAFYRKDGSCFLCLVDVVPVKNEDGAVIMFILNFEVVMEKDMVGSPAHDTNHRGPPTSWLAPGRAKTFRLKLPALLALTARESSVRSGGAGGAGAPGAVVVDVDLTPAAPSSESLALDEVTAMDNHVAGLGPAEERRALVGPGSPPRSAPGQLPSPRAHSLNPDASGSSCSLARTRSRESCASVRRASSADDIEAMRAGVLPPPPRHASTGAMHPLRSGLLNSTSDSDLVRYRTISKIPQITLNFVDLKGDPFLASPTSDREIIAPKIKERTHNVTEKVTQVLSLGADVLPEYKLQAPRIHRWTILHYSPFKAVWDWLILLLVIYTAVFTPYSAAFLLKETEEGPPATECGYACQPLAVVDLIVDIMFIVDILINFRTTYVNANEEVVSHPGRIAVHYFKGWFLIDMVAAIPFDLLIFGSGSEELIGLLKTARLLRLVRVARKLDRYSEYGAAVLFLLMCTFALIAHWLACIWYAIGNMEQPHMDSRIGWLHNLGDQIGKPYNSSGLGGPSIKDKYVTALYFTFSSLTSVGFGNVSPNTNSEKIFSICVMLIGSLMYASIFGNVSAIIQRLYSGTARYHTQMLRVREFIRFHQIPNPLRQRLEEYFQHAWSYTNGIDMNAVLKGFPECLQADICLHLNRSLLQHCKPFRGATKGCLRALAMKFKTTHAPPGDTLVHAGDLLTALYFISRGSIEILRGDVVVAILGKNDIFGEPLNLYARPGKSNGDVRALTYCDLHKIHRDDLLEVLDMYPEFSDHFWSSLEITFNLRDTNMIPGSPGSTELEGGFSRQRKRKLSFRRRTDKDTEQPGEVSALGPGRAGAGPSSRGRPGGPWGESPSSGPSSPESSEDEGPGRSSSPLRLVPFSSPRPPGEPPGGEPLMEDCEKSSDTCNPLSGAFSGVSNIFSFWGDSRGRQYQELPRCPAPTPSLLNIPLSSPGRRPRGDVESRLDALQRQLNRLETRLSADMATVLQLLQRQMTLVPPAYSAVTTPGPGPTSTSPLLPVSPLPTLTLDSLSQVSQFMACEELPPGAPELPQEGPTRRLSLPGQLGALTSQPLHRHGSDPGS
Chain of Plasmepsin 4 (Q17SB2 whole entry): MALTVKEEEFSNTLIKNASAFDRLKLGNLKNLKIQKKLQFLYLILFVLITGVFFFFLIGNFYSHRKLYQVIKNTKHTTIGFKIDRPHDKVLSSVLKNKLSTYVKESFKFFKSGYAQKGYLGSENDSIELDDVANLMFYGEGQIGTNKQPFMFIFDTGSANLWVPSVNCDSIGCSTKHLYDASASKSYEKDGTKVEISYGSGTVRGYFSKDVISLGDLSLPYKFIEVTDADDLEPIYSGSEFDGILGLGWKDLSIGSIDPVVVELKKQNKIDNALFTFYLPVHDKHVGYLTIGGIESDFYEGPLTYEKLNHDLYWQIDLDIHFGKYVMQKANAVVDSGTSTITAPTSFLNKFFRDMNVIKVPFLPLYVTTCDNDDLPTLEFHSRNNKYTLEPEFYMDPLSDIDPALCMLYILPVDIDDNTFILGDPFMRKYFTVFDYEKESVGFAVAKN
Chain of Plasmepsin II (P46925 whole entry): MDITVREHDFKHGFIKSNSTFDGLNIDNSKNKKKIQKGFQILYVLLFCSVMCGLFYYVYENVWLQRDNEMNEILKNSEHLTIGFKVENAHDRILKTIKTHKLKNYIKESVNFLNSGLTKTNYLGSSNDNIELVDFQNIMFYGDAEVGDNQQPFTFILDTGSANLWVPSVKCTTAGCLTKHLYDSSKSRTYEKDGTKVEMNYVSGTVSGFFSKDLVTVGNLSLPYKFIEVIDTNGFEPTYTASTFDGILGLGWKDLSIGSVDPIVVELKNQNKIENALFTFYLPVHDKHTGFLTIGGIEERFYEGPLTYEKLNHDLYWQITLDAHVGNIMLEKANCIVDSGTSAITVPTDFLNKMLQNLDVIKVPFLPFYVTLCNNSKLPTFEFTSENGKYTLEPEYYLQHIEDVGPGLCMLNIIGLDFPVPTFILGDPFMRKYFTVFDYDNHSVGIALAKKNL

Row | SMILES | bioavailability [1] | IC50 [2] | inhibition in vivo at 10 mg/kg (Plasmodium chabaudi [3]) | clearance [4] | Time [5] | t1/2 [6] | IC50 (Plasmodium falciparum [7]) | Vd [8] | half-life [9] | inhibition in vivo at 30 mg/kg (Plasmodium chabaudi [10]) | IC50 (Plasmodium falciparum [11]) | ED90 (Plasmodium chabaudi [12]) | ED99 (Plasmodium chabaudi [12]) | inhibition in vivo at 3 mg/kg (Plasmodium chabaudi [13]) | IC50 (Plasmepsin II) | bioavailability [14] | IC50 (Plasmepsin 4) | Intrinsic clearance (CLint) [15] | IC50 (Beta-secretase 1)
1 | C[C@H](NC(=O)[C@H]1CNC[C@@H]1c1ccc(C(F)(F)F)cc1)c1ccc(N(C)C)cc1 | 32% | 32 µM | 75.2% | 3.3 mL/min/kg | 24 h | 0.633 h | 0.046 to 0.051 µM | 1.3 L/kg | 4.4 h | 98.7% | 0.021 µM | 20 mg/kg/day | 30 mg/kg/day | 22.4% |  |  |  |  | 
2 | CN(C)c1ccc(CNC(=O)[C@H]2CNC[C@@H]2c2ccc(C(F)(F)F)nc2)cc1 (racemic) |  | 21.7 µM |  | 5.9 mL/min/kg |  | 1.17 h | 0.23 to 0.25 µM | 3.2 L/kg | 6.6 h |  |  |  |  |  | > 10 µM | 13% | > 10 µM | 3.1 µL/min/mg | > 10 µM
